Assay results published in patent US11725187B2, “Selection of human hematopoetic stem cells using EPCR” (UNIVERSITE DE MONTREAL, priority 2016, dated 2023).

Test system: EPCR
Test: EPCR surface expression on cultured CD34+ cells by flow cytometry
Procedure: Fresh or cultured CB cells were labelled or sorted for different HSPC phenotypes using the following antibodies. […] Cells were analyzed on a BD Canto flow cytometer, and cell sorting (under low pressure conditions) was conducted on a BD Aria II cell sorter.

| SMILES | increase in proportion of EPCR+ cells / EPCR expression (CB, mPB or BM CD34+ cells, 7 days, UM171 38 nM, SR1 1000 nM (FIG. 2)) | enrichment / expansion of EPCR+ population of cells (CD34+ cells (FIG. 17)) |
| --- | --- | --- |
| CC(C)n1cnc2c(NCCc3ccc(O)cc3)nc(-c3csc4ccccc34)nc21 [SR1] | small increase | – |
| Nc1cccc2c1CN(C1CCC(=O)NC1=O)C2=O (centres unmarked) [lenalidomide] | – | enriches |
